Laboratory results taken from ChEMBL document CHEMBL1155822, “Inhibition of acetylcholinesterase, beta-amyloid aggregation, and NMDA receptors in Alzheimer's disease: a promising direction for the multi-target-directed ligands gold rush” (J Med Chem, 2008).
pIC50: −log10 of the molar value.

Assays:
Cholinesterase = Cholinesterase (Homo sapiens, UniProt P06276); assay: Inhibition of human serum BChE by Ellman's method
Acetylcholinesterase = Acetylcholinesterase (Homo sapiens, UniProt P22303)
Description: Inhibition of human recombinant AChE by Ellman's method

[1] = molecular target: Glutamate NMDA receptor; GRIN1/GRIN2B (Homo sapiens, UniProt Q05586+Q13224)
Glutamate NMDA receptor; GRIN1/GRIN2B, sequence (Q13224 whole entry, other chains not shown): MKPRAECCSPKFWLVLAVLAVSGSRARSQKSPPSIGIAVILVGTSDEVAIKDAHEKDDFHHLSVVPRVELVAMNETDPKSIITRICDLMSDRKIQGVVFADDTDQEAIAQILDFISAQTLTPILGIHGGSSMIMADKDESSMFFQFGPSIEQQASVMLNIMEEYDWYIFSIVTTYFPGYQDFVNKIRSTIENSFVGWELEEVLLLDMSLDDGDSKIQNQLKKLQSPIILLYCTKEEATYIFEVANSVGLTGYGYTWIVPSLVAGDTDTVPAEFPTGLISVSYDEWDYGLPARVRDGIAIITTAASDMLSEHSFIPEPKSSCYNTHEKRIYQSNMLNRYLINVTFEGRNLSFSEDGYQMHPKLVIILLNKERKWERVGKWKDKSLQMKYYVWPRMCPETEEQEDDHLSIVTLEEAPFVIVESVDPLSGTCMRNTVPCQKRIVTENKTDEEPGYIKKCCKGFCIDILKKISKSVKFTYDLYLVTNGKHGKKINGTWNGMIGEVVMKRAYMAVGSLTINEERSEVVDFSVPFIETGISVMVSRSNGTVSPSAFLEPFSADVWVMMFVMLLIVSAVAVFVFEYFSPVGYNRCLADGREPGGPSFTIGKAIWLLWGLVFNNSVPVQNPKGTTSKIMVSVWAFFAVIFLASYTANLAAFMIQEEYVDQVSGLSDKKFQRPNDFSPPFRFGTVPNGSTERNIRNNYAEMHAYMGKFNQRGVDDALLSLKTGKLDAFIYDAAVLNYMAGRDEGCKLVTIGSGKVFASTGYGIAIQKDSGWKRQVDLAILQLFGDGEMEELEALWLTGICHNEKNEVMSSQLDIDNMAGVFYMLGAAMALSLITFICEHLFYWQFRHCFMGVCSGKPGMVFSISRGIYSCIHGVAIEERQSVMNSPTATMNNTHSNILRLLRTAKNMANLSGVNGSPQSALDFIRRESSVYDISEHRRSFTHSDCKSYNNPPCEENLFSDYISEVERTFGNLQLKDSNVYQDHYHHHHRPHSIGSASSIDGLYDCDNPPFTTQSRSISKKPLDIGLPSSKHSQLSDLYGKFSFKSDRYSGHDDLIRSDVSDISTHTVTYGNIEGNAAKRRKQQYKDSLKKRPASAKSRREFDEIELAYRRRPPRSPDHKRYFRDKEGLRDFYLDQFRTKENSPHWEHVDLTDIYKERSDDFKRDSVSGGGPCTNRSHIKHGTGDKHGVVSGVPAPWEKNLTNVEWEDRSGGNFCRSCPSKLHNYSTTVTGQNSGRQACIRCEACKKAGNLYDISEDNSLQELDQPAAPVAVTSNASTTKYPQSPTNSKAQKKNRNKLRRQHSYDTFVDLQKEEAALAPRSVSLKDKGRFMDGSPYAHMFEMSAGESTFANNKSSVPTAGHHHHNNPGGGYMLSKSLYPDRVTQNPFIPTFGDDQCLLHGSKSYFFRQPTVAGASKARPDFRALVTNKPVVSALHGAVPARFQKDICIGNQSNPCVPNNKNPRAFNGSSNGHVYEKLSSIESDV
Description: Inhibition of NMDA NR1/NR2B receptor expressed in xenopus oocytes assessed as inhibition of NMDA and glycine-induced current response by two-electrode voltage clamp assay

SH-SY5Y = assay: Antioxidant activity against tert-butyl hydroperoxide-induced ROS evoked cell death in human SH-SY5Y cells; assay type: functional, cell-based

Cholinesterase, sequence (P06276 whole entry): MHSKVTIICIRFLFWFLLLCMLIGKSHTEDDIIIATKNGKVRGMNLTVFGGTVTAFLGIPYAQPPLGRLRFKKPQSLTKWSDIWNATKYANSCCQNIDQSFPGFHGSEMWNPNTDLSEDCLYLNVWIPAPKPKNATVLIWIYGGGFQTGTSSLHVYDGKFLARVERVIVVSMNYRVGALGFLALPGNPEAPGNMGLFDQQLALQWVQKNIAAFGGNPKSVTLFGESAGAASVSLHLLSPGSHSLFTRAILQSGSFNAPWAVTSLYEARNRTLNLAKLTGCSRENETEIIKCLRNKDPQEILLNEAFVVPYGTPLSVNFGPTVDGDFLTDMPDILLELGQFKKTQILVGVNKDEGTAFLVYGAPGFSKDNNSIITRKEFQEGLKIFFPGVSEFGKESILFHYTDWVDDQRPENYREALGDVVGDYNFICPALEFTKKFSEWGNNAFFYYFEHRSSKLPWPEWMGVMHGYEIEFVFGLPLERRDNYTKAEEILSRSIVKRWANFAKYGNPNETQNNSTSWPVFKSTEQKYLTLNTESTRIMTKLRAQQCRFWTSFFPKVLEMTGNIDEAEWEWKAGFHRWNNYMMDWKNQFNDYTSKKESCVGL
Acetylcholinesterase, sequence (P22303 whole entry): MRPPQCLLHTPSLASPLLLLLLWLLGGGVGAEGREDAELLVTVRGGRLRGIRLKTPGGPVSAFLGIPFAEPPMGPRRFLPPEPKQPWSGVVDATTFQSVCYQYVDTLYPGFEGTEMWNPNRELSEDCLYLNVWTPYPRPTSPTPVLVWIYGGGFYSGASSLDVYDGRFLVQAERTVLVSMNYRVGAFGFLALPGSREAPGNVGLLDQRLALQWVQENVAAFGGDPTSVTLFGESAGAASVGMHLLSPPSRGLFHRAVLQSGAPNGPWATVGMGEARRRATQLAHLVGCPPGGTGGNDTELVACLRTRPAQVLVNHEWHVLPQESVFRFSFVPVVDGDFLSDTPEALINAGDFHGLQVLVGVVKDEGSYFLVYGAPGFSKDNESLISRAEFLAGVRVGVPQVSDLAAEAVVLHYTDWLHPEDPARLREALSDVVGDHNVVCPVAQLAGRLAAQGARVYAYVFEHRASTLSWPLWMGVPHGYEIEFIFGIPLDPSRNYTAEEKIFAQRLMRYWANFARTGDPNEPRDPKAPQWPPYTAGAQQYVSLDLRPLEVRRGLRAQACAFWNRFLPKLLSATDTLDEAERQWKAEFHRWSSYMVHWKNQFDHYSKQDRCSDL

Compound	pIC50 (Cholinesterase)	pIC50 (Acetylcholinesterase)	pIC50 [1]	pIC50 (SH-SY5Y)
Clc1ccc2c(NCCCNCCCCCCOc3cccc4[nH]c5ccccc5c34)c3c(nc2c1)CCCC3	6.86	8.59	4.89	
Oc1cccc2[nH]c3ccccc3c12				7.15
Clc1ccc2c(NCCCNCCCCCOc3cccc4[nH]c5ccccc5c34)c3c(nc2c1)CCCC3	6.72	8.81	4.74	
Cc1c(C)c2c(c(C)c1O)CCC(C)(C(=O)O)O2 (stereo not given) [TROLOX]				4.30
Clc1ccc2c(NCCCNCCCCOc3cccc4[nH]c5ccccc5c34)c3c(nc2c1)CCCC3	6.68	8.78	4.52	
Clc1ccc2c(NCCCNCCCOc3cccc4[nH]c5ccccc5c34)c3c(nc2c1)CCCC3 [CARBACRINE]	6.53	8.67	6.13	4.64
